Entries after “also recorded” stand apart in the source; their conditions may differ. Where two headings read alike, the source gives them in different places. Marks after values point to notes of the source that are not given here.
How the values were obtained:
[1] = test system: human D1 receptor knock-in mice; assay: Basal (Habituated) Locomotor Activity; assay type: in vivo, mouse; details: for Basal Locomotor Activity (Total Ambulations for 60 min), mean: male human D1 knock-in mice, N = 8/group; for Effect on basal movement / locomotor activation (in words): oral dose response, habituated human D1 knock-in mice
Method: Locomotor activity is measured using an automated system to track movement in mice. Monitoring of mouse locomotor activity behaviors take place in transparent plastic shoebox cages having dimensions of 45×25×20 cm, with a 1 cm depth of wood chips for absorbent bedding, and covered with a ventilated filtered plastic cage top. Cages were placed in a rectangular frame containing a grid of 12 photocell beams in an 8×4 configuration (Kinder Scientific, Poway, Calif.) that is positioned 2.5 centimeters from the floor of the cage for the detection of body movements (ambulations) and recorded by computer.
Male human D1 receptor knock-in mice are placed in chambers and allowed to habituate to the chambers for 60 min. During the habituation period, the mice show decreasing locomotion over time, as expected. Following administration of a compound of the invention, animal movement is found to increase in a dose-dependent fashion.
The mice are randomly assigned to treatment groups. In the dose response study, each mouse is placed individually into one of the locomotor activity boxes for a 60 min. habituation period. The mice are then dosed orally using test compound in a 20% hydroxypropyl-betacyclodextrin vehicle and using a 10 mL/kg dose volume. After dosing, the mice are placed back into the LMA boxes and the total number of ambulations is recorded per 10 min interval for each mouse over a 60 min measurement period. Statistical analysis is carried out using one-way ANOVA followed by post-hoc analysis using Dunnett's Comparison test.

[2] = Plasma and Brain Levels after oral dosing; assay type: in vivo; details: fed
Method: Example 1 is orally dosed to male mouse from 1 mg/kg to 30 mg/kg in fed condition, and the plasma and brain concentration are determined 1.5 hr post-dose. The fraction unbound of the compound is determined in vitro as described previously (Zamek-Gliszczynski M J, Ruterbories K J, Ajamie R T, Wickremsinhe E R, Pothuri L, Rao M V, Basavanakatti V N, Pinjari J, Ramanathan V K, Chaudhary A K (2011) Validation of 96-well equilibrium dialysis with non-radiolabeled drug for definitive measurement of protein binding and application to clinical development of highly-bound drugs. J Pharm Sci 100: 2498-2507). The ratio (Kpuu) of unbound brain concentration (Cu,brain) vs. unbound plasma concertation (Cu,plasma) is determined as described previously (Raub T J, Wishart G N, Kulanthaivel P, Staton B A, Ajamie R T, Sawada G A, Gelbert L M, Shannon H E, Sanchez-Martinez C, De Dios A (2015) Brain Exposure of Two Selective Dual CDK4 and CDK6 Inhibitors and the Antitumor Activity of CDK4 and CDK6 Inhibition in Combination with Temozolomide in an Intracranial Glioblastoma Xenograft. Drug Metab Dispos. 43:1360-71). The data presented below for Example 1 are averages from 3 animals at each dose. “Con.” refers to concentration. […]

human D1 receptor = human D1 receptor (Homo sapiens (Human), UniProt P21728); assay: Human D1 Receptor PAM Assay (cAMP HTRF, potentiator mode with EC20 dopamine); assay type: cell-based; details: for EC50: HEK293 cells expressing human D1 receptor, 12 nM dopamine (EC20), cAMP, read-out: Abs EC50; for Emax: fitted top of curve, 0% = EC20 dopamine, 100% = 5 μM dopamine, read-out: % Top (% Potentiation)
Sequence of human D1 receptor (P21728 whole entry): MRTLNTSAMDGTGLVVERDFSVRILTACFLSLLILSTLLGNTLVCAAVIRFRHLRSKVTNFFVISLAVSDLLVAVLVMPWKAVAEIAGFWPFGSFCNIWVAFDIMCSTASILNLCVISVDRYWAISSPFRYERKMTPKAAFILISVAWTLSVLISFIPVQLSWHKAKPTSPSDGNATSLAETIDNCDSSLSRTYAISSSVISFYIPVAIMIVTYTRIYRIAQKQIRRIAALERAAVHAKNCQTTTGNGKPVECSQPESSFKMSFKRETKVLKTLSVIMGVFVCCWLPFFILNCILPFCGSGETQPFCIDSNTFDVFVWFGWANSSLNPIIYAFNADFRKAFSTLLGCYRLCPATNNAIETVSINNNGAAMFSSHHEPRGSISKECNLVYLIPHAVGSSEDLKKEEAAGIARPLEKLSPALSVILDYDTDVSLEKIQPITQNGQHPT
Source text: The PAM activity of the compounds of the present invention may be measured essentially as described in Svensson et al., An Allosteric Potentiator of the Dopamine D1 Receptor Increases Locomotor Activity in Human D1 Knock-in Mices without Casusing Stereotypy or Tachyphylaxis. J. Pharmacol. Exp. Ther. (2017) 360:117-128.
More specifically, HEK293 cells that stably express the human D1 receptor (Accession number NM_000794) are generated by gene transduction using the pBABE-bleo retroviral vector and selected with Zeocin™ (InvivoGen). At approximately 80% confluency, the cells are harvested using TrypLE™ Express (Gibco), suspended in FBS plus 8% DMSO, and stored in liquid nitrogen. On the day of the assay, cells are thawed and resuspended in STIM buffer (Hanks Balanced Salt Solution supplemented with 0.1% BSA, 20 mM HEPES, 500 μM IBMX, and 100 μM ascorbic acid).
Test compound is serially diluted (1:2) with DMSO into assay plates (ProxiPlate-384 Plus, PerkinElmer) using acoustic dispensing (Labcyte) to provide 20 concentrations for full response curves. […] Plates are incubated at room temperature for a total reaction time of 60 min.
cAMP production is quantified using HTRF® detection (Cisbio) according to the manufacturer's instructions. Generally, lysis buffer containing anti-cAMP cryptate (5 μL) and D2-conjugate (from HTRF® kit) (5 μL) is added to the wells, plates are incubated for an additional 60-90 min, and the time-resolved fluorescence is detected using an EnVision™ plate reader (PerkinElmer). Fluorescence data is converted to cAMP concentrations using a cAMP standard curve and analyzing using a 4-parameter non-linear logistic equation (Genedata Screener, version 13.0.5-standard). For potentiator mode concentration-response curves, results are expressed as percent of the window between a response at EC20 concentration of dopamine alone (normalized to 0%) and the maximum response to dopamine (defined by response to 5 μM dopamine, final concentration, normalized as 100%).
Absolute EC50 values are calculated based on the maximum and minimum responses of the control agonist (dopamine). The % Potentiation (% Top) is determined from the fitted top of the concentration response curve.

[3] = 3 mg/kg oral, male mouse, 1.5 hr
[4] = 3 mg/kg oral, male mouse, 1.5 hr, read-out: Brain con.
[5] = 3 mg/kg oral, male mouse, 1.5 hr, read-out: Cu, brain
[6] = 3 mg/kg oral, male mouse, 1.5 hr, read-out: Cu, plasma
[7] = 10 mg/kg oral, male mouse, 1.5 hr
[8] = 10 mg/kg oral, male mouse, 1.5 hr, read-out: Brain con.
[9] = 10 mg/kg oral, male mouse, 1.5 hr, read-out: Cu, brain
[10] = 10 mg/kg oral, male mouse, 1.5 hr, read-out: Cu, plasma
[11] = 30 mg/kg oral, male mouse, 1.5 hr
[12] = 30 mg/kg oral, male mouse, 1.5 hr, read-out: Brain con.
[13] = 30 mg/kg oral, male mouse, 1.5 hr, read-out: Cu, brain
[14] = 30 mg/kg oral, male mouse, 1.5 hr, read-out: Cu, plasma
[15] = brain/plasma, 3 mg/kg oral, male mouse, 1.5 hr, read-out: Kpuu (Cu,brain vs. Cu,plasma)
[16] = brain/plasma, 10 mg/kg oral, male mouse, 1.5 hr, read-out: Kpuu (Cu,brain vs. Cu,plasma)
[17] = brain/plasma, 30 mg/kg oral, male mouse, 1.5 hr, read-out: Kpuu (Cu,brain vs. Cu,plasma)

Compound | Basal Locomotor Activity (Total Ambulations for 60 min), mean ([1]; 3.0 mg/kg PO) | Basal Locomotor Activity (Total Ambulations for 60 min), mean ([1]; 10 mg/kg PO) | Basal Locomotor Activity (Total Ambulations for 60 min), mean ([1]; 30 mg/kg PO) | Effect on basal movement / locomotor activation (in words) [1] | Plasma con. [2, 3] [nM] | concentration at 1 h [2, 4] [nM] | concentration at 1 h [2, 5] [nM] | concentration at 1 h [2, 6] [nM] | Plasma con. [2, 7] [nM] | concentration at 1 h [2, 8] [nM] | concentration at 1 h [2, 9] [nM] | concentration at 1 h [2, 10] [nM] | Plasma con. [2, 11] [nM] | concentration at 1 h [2, 12] [nM] | concentration at 1 h [2, 13] [nM] | concentration at 1 h [2, 14] [nM] | Kp uu [2, 15] | Kp uu [2, 16] | Kp uu [2, 17] | EC50 (human D1 receptor) [nM] | also measured
C[C@H]1c2cccc(-c3cnn(C)c3)c2C[C@H](CO)N1C(=O)Cc1c(Cl)cccc1Cl [Example 1, 2-(2,6-dichlorophenyl)-1-((1S,3R)-3-(hydroxymethyl)-1-methyl-5-(1-methyl-1H-pyrazol-4-yl)-3,4-dihydroisoquinolin-2(1H)-yl)ethan-1-one] | 490 | 2426*** | 3568**** | increase basal movement in a dose dependent manner; also recorded: significant in vivo efficacy when orally administered at 6, 10, and 30 mg/kg PO | 86.6 | 60 | 1.5 | 2.34 | 120 | 57.6 | 1.44 | 3.23 | 1660 | 794 | 19.9 | 44.9 | 1.06 | 0.44 | 0.65 | 16.4 ± 3.18 | Basal Locomotor Activity (Total Ambulations for 60 min), mean ([1]; 1.0 mg/kg PO): 410; Basal Locomotor Activity (Total Ambulations for 60 min), mean ([1]; 6.0 mg/kg PO): 1517*; Cu, brain ([2]; 1 mg/kg oral, male mouse, 1.5 hr): BQL; Brain con. ([2]; 1 mg/kg oral, male mouse, 1.5 hr, BQL = below 1 ng/mg tissue): BQL; Kp uu at 1.5 h ([2]; brain/plasma, 6 mg/kg oral, male mouse, read-out: Kpuu (Cu,brain vs. Cu,plasma)): 0.65; concentration at 1.5 h ([2]; male, mouse, brain, oral, 6 mg/kg, 6 mg/kg oral, read-out: Brain con.): 129 nM; concentration at 1.5 h ([2]; male, mouse, brain, oral, 6 mg/kg, 6 mg/kg oral, read-out: Cu, brain): 3.22 nM; concentration at 1.5 h ([2]; male, mouse, plasma, oral, 1 mg/kg, 1 mg/kg oral, read-out: Cu, plasma): 0.182 nM; concentration at 1.5 h ([2]; male, mouse, plasma, oral, 1 mg/kg, 1 mg/kg oral, read-out: Plasma con.): 6.74 nM; concentration at 1.5 h ([2]; male, mouse, plasma, oral, 6 mg/kg, 6 mg/kg oral, read-out: Cu, plasma): 4.67 nM; concentration at 1.5 h ([2]; male, mouse, plasma, oral, 6 mg/kg, 6 mg/kg oral, read-out: Plasma con.): 173 nM; Emax (human D1 receptor): 91.4%
C[C@H]1c2cccc(-c3cn[nH]c3)c2C[C@H](CO)N1C(=O)Cc1c(Cl)cccc1Cl [Example 8, 2-(2,6-dichlorophenyl)-1-((1S,3R)-3-(hydroxymethyl)-1-methyl-5-(1H-pyrazol-4-yl)-3,4-dihydroisoquinolin-2(1H)-yl)ethan-1-one] | 335 | 753 | 3746** | increase basal movement in a dose dependent manner | 87.4 | 66.3 | 0.66 | 2.71 | 901 | 267 | 2.67 | 27.9 | 10321 | 2391 | 23.9 | 320 | 0.24 | 0.1 | 0.07 | 13.4 | Basal Locomotor Activity (Total Ambulations for 60 min), mean ([1]; 20 mg/kg PO): 3629*; Basal Locomotor Activity (Total Ambulations for 60 min), mean ([1]; 60 mg/kg PO): 4080 ***; Kp uu at 1 h ([2]; brain/plasma, 20 mg/kg oral, male mouse, 1.5 hr, read-out: Kpuu (Cu,brain vs. Cu,plasma)): 0.1; Kp uu at 1 h ([2]; brain/plasma, 60 mg/kg oral, male mouse, 1.5 hr, read-out: Kpuu (Cu,brain vs. Cu,plasma)): 0.08; concentration at 1 h ([2]; male, mouse, brain, oral, 20 mg/kg, 20 mg/kg oral, 1.5 hr, read-out: Brain con.): 721 nM; concentration at 1 h ([2]; male, mouse, brain, oral, 20 mg/kg, 20 mg/kg oral, 1.5 hr, read-out: Cu, brain): 7.21 nM; concentration at 1 h ([2]; male, mouse, brain, oral, 60 mg/kg, 60 mg/kg oral, 1.5 hr, read-out: Brain con.): 5000 nM; concentration at 1 h ([2]; male, mouse, brain, oral, 60 mg/kg, 60 mg/kg oral, 1.5 hr, read-out: Cu, brain): 50 nM; concentration at 1 h ([2]; male, mouse, plasma, oral, 20 mg/kg, 20 mg/kg oral, 1.5 hr, read-out: Cu, plasma): 75.7 nM; concentration at 1 h ([2]; male, mouse, plasma, oral, 20 mg/kg, 20 mg/kg oral, 1.5 hr, read-out: Plasma con.): 2440 nM; concentration at 1 h ([2]; male, mouse, plasma, oral, 60 mg/kg, 60 mg/kg oral, 1.5 hr, read-out: Cu, plasma): 622 nM; concentration at 1 h ([2]; male, mouse, plasma, oral, 60 mg/kg, 60 mg/kg oral, 1.5 hr, read-out: Plasma con.): 20100 nM; Emax (human D1 receptor): 75.9%

— patent publication US10611751B2, “Dopamine D1 receptor positive allosteric modulators” (Eli Lilly and Company, priority 2018, dated 2020)
